According to article PMC12286057, “An Investigation of 5-Halogenated N-Indolylsulfonyl-2-fluorophenol Derivatives as Aldose Reductase Inhibitors” (Medicines, 2025):

Assays:
[1] = design: method as in Mylari et al. [49]; details: ref Mylari et al. [49], cited from earlier work
[2] = tested on: ALR2; design: method as in Mylari et al. [49]; details: preclinical studies; ref Mylari et al. [49]; cited from earlier work
[3] = tested on: Caco-2; design: method as in Mylari et al. [49]; details: ref Mylari et al. [49]; cited from earlier work
[4] = tested on: diabetic rats; design: method as in Mylari et al. [49]; details: lens, retina and sciatic nerve of diabetic rats; ref Mylari et al. [49]; cited from earlier work
[5] = molecular target: T1, partially purified ALR2 from rat lenses (Rattus norvegicus, UniProt P07943); assay: ALR2 enzymatic assay (NADPH consumption, DL-glyceraldehyde substrate); assay type: biochemical; details: for fold activity loss compared to lead compound IIc: IC50 ratio versus IIc, rat ALR2 enzyme; for fold less strong ARI than sorbinil and epalrestat: IC50 ratio versus the reference drugs sorbinil and epalrestat; for inhibition at 10 µM: cut-off concentration of 10 μM; for IC50: partially purified ALR2 from rat lenses, 0.1–10 μM concentrations
T1 construct: Supernatant containing the partially purified ALR2 enzyme was used directly or stored at −80 °C for less than 24 h; from tissue; host or cells: eye lenses of Fischer-344 rats (homogenate supernatant after 40% ammonium sulfate precipitation)
Method: The ALR2 enzyme was isolated from rat lenses of the Fischer-344 series. Laboratory animal handling and experiment conduct was carried out in accordance with the Law on the Protection of Laboratory Animals (Hellenic Republic) and was declared to the Veterinary Authority of the Republic of Greece. The animal study protocol was approved by the Ethics Committee of the Prefecture of Central Macedonia (protocol code 270079/2500) for studies involving animals.
Eye lenses were quickly removed from Fischer-344 rats following euthanasia. The enzyme was partially purified by a well-established and previously reported procedure. The lenses were removed from euthanized rats and were quickly stored at −80 °C until used. Great care was taken to clean the lenses mechanically from other ocular tissues and debris. The lenses were homogenized in 5 vol of cold ultrapure water (0.5 mL per lens), and the homogenate was centrifuged at 10,000 × rpm at 0–4 °C for 15 min. The supernatant was then collected, precipitated with a saturated solution of ammonium sulfate (40% saturation), and centrifuged at 10,000 × rpm at 0–4 °C for 15 min. Supernatant containing the partially purified ALR2 enzyme was used directly or stored at −80 °C for less than 24 h.
ALR2 activity was assayed spectrophotometrically by determining NADPH consumption (ε340nm = 6300 M^−1 × cm^−1). The examined compounds were dissolved in DMSO (1% final concentration) at appropriate final concentrations (0.1–10 μM). The effects of the compounds on enzyme activity were determined by including the inhibitor in the reaction mixture at required concentrations. At the same concentration, the inhibitor was included in the reference blank. The reference blank contained all the following reagents except the substrate to correct NADPH oxidation, which is not associated with the substrate’s reduction. Briefly, 2.4 mL of 66.7 mM phosphate Na^+/K^+ assay buffer (pH = 6.2), 100 μL of 3.2 mM NADPH solution in assay buffer, 300 μL of enzyme supernatant, 90 μL of ultrapure water, and 10 μL of solution of tested inhibitors in DMSO in appropriate concentration or pure DMSO (served as control) were mixed in that order in a glass vial. Subsequently, 1 mL of that mixture was transferred to each 1.5 mL-UV quartz cuvette (10 mm path length), and 100 μL of assay buffer (reference blank) or 110 mM DL-glyceraldehyde solution (10 mM final concentration) in assay buffer was added to initiate the enzyme reaction. ALR2 activity was assayed by monitoring NADPH consumption (0.1 mM final concentration) at 340 nm for 5 min after incubating reaction mixtures for 1 min at 30 °C. […] IC50 values were determined by least-squares regression analysis of the semi-logarithmic dose–inhibition curves. Each curve was generated using at least five compounds’ concentrations, causing inhibition from at least 15–80% in at least three triplicate repetitions.

SMILES | oral bioavailability ([1]; at 2 mg/kg) [%] | plasma half-life ([1]; preclinical studies) [h] | IC50 [2] [nM] | Caco-2 transcellular permeability [3] | in vivo normalization of elevated sorbitol and fructose [4] | fold activity loss compared to lead compound IIc [5] [fold] | fold less strong ARI than sorbinil and epalrestat [5] [fold] | inhibition at 10 µM [5] [%] | IC50 [5] [nM] | ALR2 inhibitory activity at 1 μM ([5]; lower dose of 1 μM)
Cc1c(S(=O)(=O)c2ccc(=O)[nH]n2)oc2ccc(Cl)cc12 [CP-744809, 6-(5-chloro-3-methylbenzofuran-2-sulfonyl)-2H-pyridazin-3-one] | 98 | 23 to 29 | 0.84 | > 10^−5 cm/s | remarkable efficiency in vivo in normalizing elevated sorbitol and fructose | – | – | – | – | –
O=S(=O)(c1ccc(O)c(F)c1)n1ccc2cc(F)ccc21 [Compound 3a, 4-((5-fluoro-1H-indol-1-yl)sulfonyl)-2-fluorophenol] | – | – | – | – | – | 3.1 | 12 | 74.5 ± 2.6 | 3020 ± 450 | –
O=S(=O)(c1ccc(O)c(F)c1)n1ccc2cc(Cl)ccc21 [Compound 3b, 4-((5-chloro-1H-indol-1-yl)sulfonyl)-2-fluorophenol] | – | – | – | – | – | 2.3 | 9 | 77.6 ± 1.3 | 2220 ± 280 | –
O=S(=O)(c1ccc(O)c(F)c1)n1ccc2cc(Br)ccc21 [Compound 3c, 4-((5-bromo-1H-indol-1-yl)sulfonyl)-2-fluorophenol] | – | – | – | – | – | 1.9 | 7.4 | 80.6 ± 2 | 1850 ± 150 | –
Oc1ccc(-n2ccc3cc(Cl)ccc32)cc1F [Compound 3d, 4-(5-chloro-1H-indol-1-yl)-2-fluorophenol] | – | – | – | – | – | – | – | 43.7 ± 1.3 | > 10000 | completely inactive
